Test results taken from ChEMBL document CHEMBL1149794, “3D-QSAR and docking studies of aminopyridine carboxamide inhibitors of c-Jun N-terminal kinase-1” (Eur J Med Chem, 2008).

Target: Mitogen-activated protein kinase 8 (Homo sapiens, UniProt P45983)
Experiment: Inhibition of JNK1

Mitogen-activated protein kinase 8, sequence (P45983 whole entry): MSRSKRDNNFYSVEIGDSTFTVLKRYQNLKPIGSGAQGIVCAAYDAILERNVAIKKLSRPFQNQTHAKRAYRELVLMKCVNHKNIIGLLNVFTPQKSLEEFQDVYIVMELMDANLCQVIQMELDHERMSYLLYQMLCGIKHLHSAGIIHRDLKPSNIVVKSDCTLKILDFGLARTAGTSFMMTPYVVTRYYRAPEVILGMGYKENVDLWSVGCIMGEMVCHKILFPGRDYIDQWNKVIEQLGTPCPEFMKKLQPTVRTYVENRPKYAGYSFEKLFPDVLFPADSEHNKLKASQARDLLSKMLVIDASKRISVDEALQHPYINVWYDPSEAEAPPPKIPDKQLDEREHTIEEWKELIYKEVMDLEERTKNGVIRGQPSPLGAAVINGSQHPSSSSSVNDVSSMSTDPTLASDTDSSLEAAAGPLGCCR

Row | SMILES | IC50 [nM]
1 | C[C@@H](CO)Nc1nc(C(=O)NCc2ccc(S(C)(=O)=O)cc2)cc(N)c1C#N | 180
2 | C[C@@H](CO)Oc1nc(C(=O)NCc2ccc(S(C)(=O)=O)cc2)cc(N)c1C#N | 22
3 | CS(=O)(=O)c1ccc(CNC(=O)c2cc(N)c(C#N)c(OCCC(=O)O)n2)cc1 | 1640
4 | CC(C)[C@H](CO)Nc1nc(C(=O)NCc2ccc(S(C)(=O)=O)cc2)cc(N)c1C#N | 1500
